Experimental data reported in patent US12384771B2, “Pleuromutilin derivative containing thiazole-pyridine benzyl quaternary ammonium salt side chain and preparation method and use thereof” (SHAANXI UNIVERSITY OF SCIENCE AND TECHNOLOGY, priority 2022, dated 2025).
Counter-ions that a name gives are not always drawn.

Experiment: physchem
Details: thermodynamic from solid
Protocol: Experimental method: representative compounds 2, 4 and 7 were selected for solubility determination, and retapamulin hydrochloride was used as a control. 1 mg of each sample was taken and quantitatively dissolved in a 10 mL volumetric flask, and the absorption peak area was measured by a high-performance liquid chromatography; then, the saturated solutions of the representative compounds 2, 4 and 7 and the control drug retapamulin were diluted 10-fold, and the absorption peak area was determined by HPLC; their respective solubility was obtained by calculating the absorption peak area.
The experimental instrument was Shimadzu LC-16, the chromatographic column was Hypersil C18 ODS (4.6×250 mm×5 μm), the flow rate was 1.0 mL/min, the detection wavelength was 300 nm, and the mobile phase was 0.05 mol/L of aqueous acetic acid solution:acetonitrile=30:70.

For C=C[C@]1(C)C[C@@H](OC(=O)CS[C@@H]2C[C@H]3CC[C@@H](C2)N3C)[C@]2(C)[C@H](C)CC[C@]3(CCC(=O)[C@H]32)[C@@H](C)[C@@H]1O [Retapamulin hydrochloride, retapamulin hydrochloride, reference compound], the solubility (organic solvent or mixture) was 1150 µg/mL, the solubility (pH 1.5, simulated gastric fluid) was 230 µg/mL and the solubility (pH 7, water) was 120 µg/mL.
